Legend:
[1] = Solubility in EtOH (TEAC conditions); type: physicochemical; conditions: under TEAC experimental conditions
[2] = molecular target: T1, Aβ40 (Homo sapiens, UniProt P05067); assay: ITC binding of 6 with Aβ40
T1 construct: Ab40 ([…]-; purchased Peptide Institute, Inc. (Osaka, Japan)
Method: Distinct reactivities of 6 with metal-free Aβ and metal–Aβ were supported by various biophysical approaches. […] In the absence of Aβ, an increase or decrease in the absorption of the peaks at ca. 265, 300, 340, and 410 nm was monitored for 24 h (Fig. S18 ^†), which could be resulted from the oxidation of 6 in the presence of O2.[69] These spectral changes were accelerated upon incubation with Aβ, indicative of its impact on the oxidative modification of 6. Such transformation of 6 was also indicated in the presence of Cu(II) or Zn(II) with and without Aβ. To probe the interaction of 6 with Aβ, their binding properties were analyzed by isothermal titration calorimetry (ITC). For the association between 6 and Aβ, we recorded the heat change upon constant titration of the flavonoid into the solution of Aβ, where the dilution heat was also measured to avoid the heat change induced by its addition into the buffered solution. […] Thus, 6 can bind to Aβ with a micromolar binding affinity. […]
ITC. The solutions of Ab and 6 were subjected to degassing under vacuum for 3 min prior to loading into the instrument. […] […] The initial delay and the reference power were 60 s and 10 µcal/s, respectively. Dilution heat of 6 only was also measured under the same experimental conditions.
The ITC thermogram and binding isotherm were shown after the subtraction of the dilution heat.
The binding isotherm after baseline correction was fitted to the one-set-of-sites binding model using the MicroCal Origin software (version 7.0). […]

[3] = molecular target: T2, 15N-labeled Aβ40 (Homo sapiens, UniProt P05067); assay: 2D SOFAST-HMQC NMR with 15N-labeled Aβ40; type: binding; conditions: 15N-Aβ40 33 μM; 6 100 μM; 10 °C
T2 construct: AEDVG SNKGA IIGLM VGGVV; purchased rPeptide (Georgia, GA, USA)
Method: 2D 1H−15N SOFAST-HMQC NMR Experiments. […] To remove possible preformed aggregates, the lyophilized peptide was then redissolved in diluted NaOH (pH 10) and passed through a filter (0.22 µm). On the other hand, the stock solution of 15N-labeled Ab42 based on the previous report.27 Briefly, uniformly 15N-labeled Ab42 was solubilized in diluted NaOH (pH 10) at a concentration of ~200 µM. The undissolved precipitates of Ab42 were removed by centrifugation at 40,000 rpm for 1 h. The solution of 15N-labeled Ab (33 µM) was prepared with and without 6 (100 µM; 1% v/v DMSO) in 20 mM HEPES, pH 7.4 (10% v/v D2O) for NMR experiments. All spectra were acquired with 180 scans at 10 °C. Dimensions of the spectra were 1,024 (1H) ´ 128 (15N) points. Experimental data were processed with NMRpipe29 and Sparky 3.115.30 The 1H and 15N assignments of 15N-labeled Ab were determined based on the previous results.21,31 The chemical shift perturbation was calculated following the equation (eq 4).32 Note that DdH and DdN represent the alterations in the chemical shifts of 1H and 15N of 15N-labeled Ab, respectively.

[4] = tested on: human neuroblastoma 5Y cells; assay: MTT cytotoxicity assay; type: cell-based; conditions: at up to 100 μM; 24 h; 5Y cells; relative to DMSO
Method: Flavonoid 6 was synthesized following previously reported procedures with modifications.[66–68] […] It should be noted that cell viability was calculated, relative to that of the cells containing an equivalent amount of DMSO.
Cell viability was determined by the MTT assay [MTT = 3-(4,5-dimethylthiazol-2-yl)-2,5-diphenyltetrazolium bromide]. Cells were seeded in a 96-well plate (15,000 cells/100 µL) and treated with the samples {[flavonoid] = 5, 10, 25, 50, and 100 µM (1% v/v DMSO)}. After 24 h incubation, 5Y cells were washed with phosphate buffered saline (PBS; GIBCO). MTT [5 mg/mL in PBS (pH 7.4, GIBCO); 25 µL] was added to each well and the plate was incubated for 4 h at 37 °C. The formazan produced by cells was solubilized using an acidic solution of DMF (pH 4.5, 50% v/v, aq) and sodium dodecyl sulfate (SDS; 20% w/v) overnight at room temperature in the dark. Absorbance was measured at 600 nm by a microplate reader (Molecular Devices). Cell viability, relative to that of the cells containing an equivalent amount of DMSO, was calculated.
The measurements were conducted in triplicate. […]

T1 sequence (P05067 672-711 limits assumed): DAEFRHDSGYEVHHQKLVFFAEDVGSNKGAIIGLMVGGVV
T2 sequence (P05067 672-711 limits assumed): as above

| Compound | solubility in ethanol (EtOH) [1] | Kd ([2]; one-set-of-sites model, 10 °C, read-out: Binding affinity) | TΔS ([2]; pH 7.4, 10 °C) | ΔG ([2]; pH 7.4, 10 °C) | ΔH ([2]; pH 7.4, 10 °C) | decrease of overall NMR peak intensity [3] | cell survival [4] |
| --- | --- | --- | --- | --- | --- | --- | --- |
| O=c1cc(-c2ccccc2)oc2cc(O)cc(O)c12 [compound 1, chrysin] | limited solubility |  |  |  |  |  |  |
| O=c1c(-c2ccc(O)c(O)c2)coc2cc(O)c(O)c(O)c12 [compound 6, 3-(3,4-dihydroxyphenyl)-5,6,7-trihydroxy-4H-chromen-4-one] |  | ~20.5 µM | 5.4 (±0.7) kcal mol^−1 | −6.0 (±0.5) kcal mol^−1 | −0.6 (±0.5) kcal mol^−1 | ca. 10% | > 90% |

Source: paper PMC10498667 (Chemical Science, 2023)
